Data taken from ChEMBL document CHEMBL3425471, “Design, synthesis and biological evaluation of novel pyrazoline-containing derivatives as potential tubulin assembling inhibitors” (Eur J Med Chem, 2015).

Legend:
Tubulin = Tubulin (Bos taurus, UniProt Q6B856+Q862L2+Q862F3); assay: Inhibition of bovine brain tubulin polymerization after 20 mins by turbidimetric analysis
A549 = assay: cells; conditions: Homo sapiens, A549, 24 h
Description: Antiproliferative activity against human A549 cells assessed as reduction in cell viability after 24 hrs by MTT assay

MCF7 = assay: cells; conditions: Homo sapiens, MCF7, 24 h
Description: Antiproliferative activity against human MCF7 cells assessed as reduction in cell viability after 24 hrs by MTT assay

HepG2 = assay: cells; conditions: Homo sapiens, HepG2, 24 h
Description: Antiproliferative activity against human HepG2 cells assessed as reduction in cell viability after 24 hrs by MTT assay

| Structure (SMILES) | IC50 (Tubulin) | IC50 (A549) | IC50 (MCF7) | IC50 (HepG2) |
| --- | --- | --- | --- | --- |
| COc1cc(C2=NN(C(=O)c3ccc(F)cc3)C(c3ccc4c(c3)OCO4)C2)cc(OC)c1OC (stereo not drawn) | 2.09 µM | 0.78 µM | 0.22 µM | 1.06 µM |
| Cc1ccc(C2=NN(C(=O)c3ccc(Br)cc3)C(c3ccc4c(c3)OCO4)C2)cc1 (stereo not drawn) | > 40 µM | > 10 µM | > 10 µM | > 10 µM |
| CCOc1ccc(C2=NN(C(=O)c3ccc(Br)cc3)C(c3ccc4c(c3)OCO4)C2)cc1 (stereo not drawn) | > 40 µM | > 10 µM | > 10 µM | > 10 µM |
| COc1cc(C(=O)N2N=C(c3ccc(Br)cc3)CC2c2ccc3c(c2)OCO3)cc(OC)c1OC (stereo not drawn) | 19.45 µM | 4.21 µM | 6.37 µM | 5.25 µM |
| COc1ccc(C(=O)N2N=C(c3ccc(OC)cc3)CC2c2ccc3c(c2)OCO3)cc1 (stereo not drawn) | 25.79 µM | 4.08 µM | 6.41 µM | 5.05 µM |
| COc1cc(C(=O)N2N=C(c3cccc(Cl)c3)CC2c2ccc3c(c2)OCO3)cc(OC)c1OC (stereo not drawn) | > 40 µM | 7.11 µM | 9.23 µM | 7.15 µM |
| O=C(c1ccc(Br)cc1)N1N=C(c2ccc(F)cc2)CC1c1ccc2c(c1)OCO2 (stereo not drawn) | > 40 µM | 2.45 µM | 5.11 µM | > 10 µM |
| COc1ccc(C2=NN(C(=O)c3ccc(Cl)cc3)C(c3ccc4c(c3)OCO4)C2)cc1 (stereo not drawn) | > 40 µM | 7.14 µM | 8.66 µM | 8.38 µM |
| COc1ccc(C2=NN(C(=O)c3cc(OC)c(OC)c(OC)c3)C(c3ccc4c(c3)OCO4)C2)cc1OC (stereo not drawn) | 2.13 µM | 0.08 µM | 0.07 µM | 0.06 µM |
| COc1ccc(C2=NN(C(=O)c3ccc(Br)cc3)C(c3ccc4c(c3)OCO4)C2)cc1 (stereo not drawn) | > 40 µM | > 10 µM | > 10 µM | > 10 µM |
| O=C(c1ccc(Br)cc1)N1N=C(c2ccc(Cl)cc2)CC1c1ccc2c(c1)OCO2 (stereo not drawn) | > 40 µM | > 10 µM | > 10 µM | > 10 µM |
| O=C(c1ccc(Br)cc1)N1N=C(c2ccc(Br)cc2)CC1c1ccc2c(c1)OCO2 (stereo not drawn) | > 40 µM | > 10 µM | > 10 µM | > 10 µM |
| COc1cccc(C2=NN(C(=O)c3ccc(Br)cc3)C(c3ccc4c(c3)OCO4)C2)c1 (stereo not drawn) | > 40 µM | > 10 µM | > 10 µM | > 10 µM |
| COc1ccc(C2=NN(C(=O)c3ccc(Br)cc3)C(c3ccc4c(c3)OCO4)C2)cc1OC (stereo not drawn) | 22.06 µM | 3.19 µM | 4.46 µM | 6.26 µM |
| CCOc1ccc(C2=NN(C(=O)c3cc(OC)c(OC)c(OC)c3)C(c3ccc4c(c3)OCO4)C2)cc1 (stereo not drawn) | 2.19 µM | 0.09 µM | 0.17 µM | 0.07 µM |
| O=C(c1ccc(Br)cc1)N1N=C(c2ccccc2)CC1c1ccc2c(c1)OCO2 (stereo not drawn) | > 40 µM | > 10 µM | > 10 µM | > 10 µM |
| COc1cc(C(=O)N2N=C(c3ccc(Cl)cc3)CC2c2ccc3c(c2)OCO3)cc(OC)c1OC (stereo not drawn) | 18.02 µM | 3.08 µM | 4.26 µM | 3.16 µM |
